Five compounds from patent US20240201205A1, “METHOD FOR DETECTING NEUROLOGICAL DISEASES USING SUPRAMOLECULE POLYMER THERAPEUTICS” (The Regents of the University of California, priority 2022, published 2024) can be followed below.

Experiment [1] deals with T1, α-synuclein fibrils isolated from an MSA patient sample (Homo sapiens, UniProt P37840).
T1 construct: fresh-frozen tissue from the cerebellum of patients clinically and neuropathologically diagnosed with MSA; from tissue; host or cells: cerebellum of MSA patients (sarkosyl-insoluble filament preparation)
Put plainly: Cryo-EM co-structures of compounds with α-synuclein fibrils from MSA patient. In kind it is binding. As to conditions: fibrils from MSA patient sample; 20 μM ligand. The protocol:
MSA filament purification. Filament purification was based on Schweigenhauser et al., 2020^2. Briefly, 1-2 g of fresh-frozen tissue from the cerebellum of patients clinically and neuropathologically diagnosed with MSA was homogenized at 20 mL/g of tissue in 10 mM Tris-HCl (pH 7.4), 800 mM NaCl, 1 mM EGTA, and 10% sucrose. A final concentration of 1% N-laurosarcosinate (w/v) was added to the homogenates, and these mixtures were incubated at 37° C. for 30 minutes. Homogenates were then centrifuged at 10,000 g for 10 minutes, and the supernatant was kept and then centrifuged at 100,000 g for 20 minutes. The pellets were resuspended at 500 μL/g of frozen tissue in 10 mM Tris-HCl (pH 7.4), 800 mM NaCl, 1 mM EGTA, and 10% sucrose. This was followed by another centrifugation at 3,000 g for 5 minutes. The supernatant was kept and diluted threefold with 50 mM Tris-HCl (pH 7.4), 150 mM NaCl, 10% sucrose, and 2% sarkosyl, followed by another centrifugation at 150,000 g for 1 hour. The final pellet resuspended in 30 mM Tris-HCl (pH 7.4) at a concentration of 100 μL/g frozen tissue.
Cryo-EM sample preparation and data collection. Purified frontal cortex and cerebellum tissue was incubated with 20 μM ligand for 45 minutes prior to freezing. For the tau PHF, 3 μL of purified filaments mixed with GTP-1 was added to a glow-discharged 200 mesh 1.2/1.3R Au Quantifoil grid for 10 seconds before blotting for 2 seconds, and then a second 3 μL aliquot was added for 3 seconds and blotted for 1 second before being plunge frozen in liquid ethane using a FEI Vitrobot Mark IV (Thermo Fisher Scientific). For the synuclein ligands, 3 μL of purified filaments mixed with compound was added to a 200 mesh 1.2/1.3R Au Quantifoil grid coated with a 2 nm thick layer of carbon, which had not been glow discharged. After 30 seconds, grids were blotted for 7.5 seconds at room temperature and 100% humidity. Grids were plunge frozen in liquid ethane using a FEI Vitrobot Mark IV. […] A defocus range of 0.8 to 1.8 μm was used with a total exposure time of 2.024 seconds fractionated into 0.025 seconds subframes. The total dose for each movie was 46 electrons/Å^2. Movies were motion-corrected using MotionCor2^3 in Scipion^4 and were Fourier cropped by a factor of 2 to a final pixel size of 0.834 Å per pixel.
Image processing. All image processing was done in RELION 4^5, and the same workflow was used for each dataset. Dose-weighted summed micrographs were imported into RELION 4. The contrast transfer function was estimated using CTFFIND-4.1^6. Filaments were manually picked and then segments were extracted with a box size of 900 pixels downscaled to 300 pixels. Contaminants and segments contributing to straight filaments were separated out using reference-free 2D class averaging. The remaining segments were re-extracted with a box size of 288 pixels without downscaling. An initial model was generated from a cylinder in RELION. One or more rounds of 3D classification with image alignment were performed, with helical rise and […] parameters fixed to eliminate obvious junk particles. One or more rounds of 3D auto-refinement was run using the best map from 3D classification low-pass filtered to 10 Å, allowing rise and twist parameters to vary. Maps were sharpened using the standard post-processing procedures in RELION.
Model building, refinement, and analysis. Prior to ligand placement, a single strand of a previously solved MSA or tau PHF filament structure^2 (PDB: 6XYQ) was refined against the density using Phenix^7. Refinement of the ligand binding pocket was done in COOT^8. Ligands were placed by hand in the density using Chimera^9. This model was then translated to give a stack spanning 5 rungs.

Experiment [2] deals with Alzheimer's disease tau paired-helical filaments (PHFs). Description: Cryo-EM co-structure of GTP-1 with Alzheimer's disease tau paired-helical filaments. Type of experiment: binding, human. As to conditions: AD patient filaments. The protocol: Samples were incubated with 20 uM GTP-1 prior to vitrification. […] The micrograph images and their 2D classification reveal well-resolved filaments primarily in the PHF conformation, with crossover distances ranging from 700-800 Å. A minor population of straight filaments (SF) was also identified; however, further structural characterization was not feasible due to limited abundance. […] The PHF structure is comprised of two protofilaments related by two-fold symmetry with a 2.37 Å rise and 179.45° twist, consistent with previously reported structures of PHFs prepared from AD brains (13, 15).
Tau PHF filament purification. Filament purification was based on Fitzpatrick et al., 2017^1. […]
Cryo-EM sample preparation and data collection. […] For the tau PHF, 3 μL of purified filaments mixed with GTP-1 was added to a glow-discharged 200 mesh 1.2/1.3R Au Quantifoil grid for 10 seconds before blotting for 2 seconds, and then a second 3 μL aliquot was added for 3 seconds and blotted for 1 second before being plunge frozen in liquid ethane using a FEI Vitrobot Mark IV (Thermo Fisher Scientific). For the synuclein ligands, 3 μL of purified filaments mixed with compound was added to a 200 mesh 1.2/1.3R Au Quantifoil grid coated with a 2 nm thick layer of carbon, which had not been glow discharged. […]

As to `O=C(Cn1cc(-c2ccoc2)c(=O)c2ccc(N3CCCC3)cc21)Nc1ccccc1C(F)(F)F` [Compound 149, 2-[3-(furan-3-yl)-4-oxo-7-(pyrrolidin-1-yl)-1,4-dihydroquinolin-1-yl]-N-[2-(trifluoromethyl)phenyl]acetamide], in experiment [1], the “binding to α-synuclein fibrils (cryo-EM co-structure)” value (“binding to α-synuclein fibrils” below) is listed as “bound to fibrils isolated from an MSA patient sample”.

As to `FCCC1CCN(c2ccn3c(n2)nc2ccccc23)CC1` [GTP-1], the “binding site on tau PHF” value in experiment [2] is on record as “bound to a solvent exposed cleft (residues 351-360)”.

As to `O=c1nc2c(ccn2C(F)(F)F)cn1-c1nc(-c2ccnc(C3CC3)n2)oc1-c1ccc(F)cc1` [compound 293], the “binding to α-synuclein fibrils” value in experiment [1] is “bound to fibrils isolated from an MSA patient sample”.

Take `CNc1nc(=O)n(-c2nc(-c3cc(C)cc(C)n3)oc2-c2ccc(F)c(F)c2)cc1F` [compound 294]: in experiment [1], the “binding to α-synuclein fibrils” value is on record as “bound to fibrils isolated from an MSA patient sample”.

Turning to `Cc1nccc2cc(-c3nc(-n4ccc5cccnc5c4=O)c(-c4ccc(C(F)(F)F)cc4)o3)ccc12` [compound 427], in experiment [1], the “binding to α-synuclein fibrils” value is given as “bound to fibrils isolated from an MSA patient sample”.
